The values below come from PubChem BioAssay (NCI).

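Cultured in 96-well plates, cells were exposed to test compound for 48 hours across five concentrations. TGI marks complete inhibition of growth.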

Test systems include RXF-631 renal; DLD-1 colon; MDA-N; NCI/ADR-RES ovarian; DMS 114 small cell lung; XF 498 CNS; LXFL 529 NSCLC; M19-MEL melanoma; KM20L2 colon.
Common to all, as to experiment: NCI-60 cell line screen, 48 h

With `COc1ccc(OC)c2c(=S)c3ccccc3[nH]c12`, the TGI in the assay on RXF-631 renal, with DLD-1 colon, with MDA-N, in the assay with NCI/ADR-RES ovarian, in the assay on DMS 114 small cell lung and with XF 498 CNS was > 100 µM each time. Further, the TGI with LXFL 529 NSCLC, in the assay on M19-MEL melanoma and in the assay on KM20L2 colon was > 100 µM each time.
Consider `CC1(C)CC(Nc2ccc(Nc3ccccc3)cc2)CC(C)(C)N1`, for which the TGI in the assay on RXF-631 renal is > 31.6 µM; with DLD-1 colon, > 100 µM; in the assay with MDA-N, 32.7 µM; with NCI/ADR-RES ovarian, 66.9 µM; in the assay with DMS 114 small cell lung, 42.9 µM; with XF 498 CNS, > 54.2 µM. In addition, the TGI in the assay with LXFL 529 NSCLC was > 56.8 µM; in the assay on M19-MEL melanoma, > 94.2 µM; in the assay with KM20L2 colon, > 78.6 µM.
On to `NS(=O)(=O)c1ccc(NC(=O)c2cccc3cc4ccccc4nc23)cc1`, for which the TGI in the assay on RXF-631 renal, in the assay with DLD-1 colon, with MDA-N, with NCI/ADR-RES ovarian, in the assay on DMS 114 small cell lung and with XF 498 CNS was > 100 µM each time. Also, the TGI with LXFL 529 NSCLC, with M19-MEL melanoma and in the assay on KM20L2 colon was > 100 µM throughout.
For `CCOC(=O)/C(=C\c1ccc[nH]1)C(=O)c1ccccc1`, the TGI in the assay on RXF-631 renal, in the assay on DLD-1 colon, in the assay with DMS 114 small cell lung, in the assay on XF 498 CNS, in the assay on LXFL 529 NSCLC and with M19-MEL melanoma was > 100 µM each time. In addition, the TGI in the assay with KM20L2 colon was > 100 µM.
